Results from patent publication US20230339945A1, “METHOD FOR PREPARING A CHELATING LIGAND DERIVED FROM PCTA” (GUERBET, priority 2020, published 2023).
One block for each compound: values may come before it.

Assays:
[1] = formation of the gadolinium complex; as described in WO 2014/174120, DOTA-Gd for comparison; cited from earlier work
[2] = decomplexation kinetics (kinetic inertia) in acidic aqueous solution, pH 1.2, 37° C.; format: physicochemical; details: same conditions (pH 1.2, 37° C.); linear gadolinium complexes
Procedure: What is more, iso4 is the group of isomers which has the best kinetic inertia (also known as the kinetic stability) among the four groups isolated by the inventors. Specifically, the inventors evaluated the kinetic inertia of the four groups of isomers by studying their decomplexation kinetics in acidic aqueous solution (pH=1.2), at 37° C. The half-life time values (T1/2) which were determined for each of the groups of isomers are indicated in table 1 below, the half-life time corresponding to the time after which 50% of the amount of complex initially present has been dissociated, according to the following decomplexation reaction (equation 2): […]

[3] = formulation tests (concentrations of trometamol and of free ligand); format: physicochemical
Procedure: Various concentrations of trometamol from 0 to 100 mM were tested.
Various concentrations of macrocyclic ligand of formula (L) from 0 to 2.5 mM were tested.

SMILES: O=C([O-])CN1CCN(CC(=O)[O-])CCN(CC(=O)O)CCN(CC(=O)[O-])CC1.[Gd+3] [DOTA-Gd, gadolinium complex of 1,4,7,10-tetraazacyclododecane-N,N′,N″,N′″-tetraacetic acid]
log (Ktherm), stability constant [1]: 25.6

SMILES: O=C(CCC(C(=O)O)N1CCN(C(CCC(=O)NCC(O)CO)C(=O)O)Cc2cccc(n2)CN(C(CCC(=O)NCC(O)CO)C(=O)O)CC1)NCC(O)CO (centres unmarked) [macrocyclic ligand of formula (L)]
release of free Gd during the process and during the lifetime of the product ([3]; content of 1 mM (0.08% m/v or 0.2 mol/mol %), 0 to 2.5 mM tested): absence of release of free Gd

SMILES: NC(CO)(CO)CO [trometamol, Tris(hydroxymethyl)aminomethane]
pH stability of the formulation ([3]; content of 10 mM (0.12% w/v), 0 to 100 mM tested): sufficient to ensure the pH stability of the formulation

Other lines, results leading:

kinetic inertia, dissociation in words [2]: dissociate instantaneously
SMILES: CNC(=O)CN(CCN(CCN(CC(=O)[O-])CC(=O)NC)CC(=O)[O-])CC(=O)[O-].[Gd+3] [gadodiamide]

kinetic inertia, dissociation in words [2]: dissociate instantaneously
SMILES: O=C([O-])CN(CCN(CC(=O)[O-])CC(=O)[O-])CCN(CC(=O)[O-])CC(=O)[O-].[Gd+3] [gadopentetate]
